According to patent US20160151412A1, “COMBINATION OF XENON WITH AN NMDA RECEPTOR ANTAGONIST FOR FIGHTING A NEURODEGENERATIVE DISEASE” (L'AIR LIQUIDE, SOCIETE ANONYME POUR L'ETUDE ET …, priority 2013, published 2016):

Test system: rat cortex cultures (cortical neurons)
Experiment: Neuronal survival (MAP-2 positive cell counts) in rat cortex cultures with PDC-induced chronic cortical degeneration under controlled gas atmosphere
Type: cell-based
Design: key to Neuronal survival: +++=reference level; ++: a favorable response, synonymous with a decrease in neuronal cell death in the presence of the treatments of interest; +: a favorable response, synonymous with a decrease in neuronal cell death in the presence of the treatments of interest; an unfavorable response is represented by a “−” sign, synonymous with an increase in neuronal death
Experimental: Cultures are prepared from rat embryo cortex taken from Wistar rates, on day 15.5 of gestation. The method for obtaining cortex cultures comprises the preparation of a homogeneous cell suspension by mechanical, i.e., non-enzymatic, dissociation of embryonic tissue using Leibovitz's L15 medium (Sigma Aldrich). Aliquots of this suspension are added to Nunc 48-well plates coated beforehand with a thin layer of polyethylenimine (1 mg/ml, borate buffer, pH 8.3) to allow neuronal cells to adhere (see Toulorge et al., Faseb J, 2011). The seeding density is between about 20,000 and 30,000 cells/cm^2. The cortex cultures are maintained in Neurobasal culture medium containing an […] B27 cocktail, N2 supplement, glutamine (2 mM) and a penicillin/streptomycin cocktail (see Nafia et al., J Neurochem, 2008). The medium and the supplement are available from Life Technologies. Six hours after placing in culture, 0.5 μM of the antimitotic cytarabine (Sigma Aldrich) is added to limit the proliferation of astrocytes. Until the moment when the effects of the gases of interest are evaluated, the cultures are placed in a conventional enclosure thermostated at 37° C., wherein CO2 is maintained at 5% by volume and the atmosphere is saturated with water. The culture medium is not changed during the culture period. The degenerative process is triggered by applying a glutamate reuptake system blocker, PDC (Zuiderwijk et al., Europ J Pharmacol, 1994). The NMDA receptor blocker, memantine, is added to the cultures before the application of PDC. These two products (PDC and memantine) are from RD Systems. Once the pharmacological treatments are carried out, the multi-well plates containing the cells in culture and the plate used for humidification of the internal compartment of the chamber are placed on a metal base that receives the Plexiglas incubation chamber. The two parts (base and Plexiglas chamber) are screwed together in a joined manner. A gas mixture of interest comprising (% by volume): 20% O2, 5% CO2 and 75% of the gas tested is then injected into the incubation chamber, with inlet and outlet valves open, while controlling the outlet flow by means of a flowmeter. The gases tested are nitrogen and xenon. The reference outlet flow, set for air at 10 liters/minute, is corrected as a function of the density of the mixture used. When the CO2 measurement at the outlet reaches 5%, the injection of the gas mixture is stopped and the chamber is completely sealed by closing the inlet and outlet valves. The exposure chamber is then placed in a 37° C. enclosure throughout the experimental protocol. After breaking the seal by opening the inlet and outlet valves and unscrewing the chamber from its base, the cultures are fixed with 4% formaldehyde in PBS for 12 minutes and then incubated at 4° C. with a monoclonal anti-MAP-2 antibody (dilution 1:200; clone AP-20; Sigma-Aldrich) for 3 days. This antibody is detected with an anti-mouse secondary antibody coupled with cyanine-3 (Sigma Aldrich; dilution 1:1000 in PBS). Image capturing is carried out with the 10× objective using a Nikon TE-300 inverted microscope equipped with an ORCA-ER cooled digital camera and HCl image capturing software (Hamamatsu). […] The cultures are then collected for fixing and analysis. Neuronal survival is quantified in the various experimental conditions tested by counting the number of cell bodies immunopositive for the pan-neuronal marker MAP-2.

[Xe] [Xe, xenon]
Neuronal survival (PDC 30 μM, 75% Xe, days 12-16): ++ | effect on neuronal survival versus nitrogen-alone condition (ANOVA, Student-Newman-Keuls, p<0.05) (PDC 30 μM, 75% xenon without memantine, n=6): significantly superior to that of the nitrogen-alone condition | Neuronal survival (no PDC, 20% O2 + 5% CO2 + 75% Xe, days 12-16, day-16 cortex cultures): +++

O=C(O)[C@H]1CN[C@H](C(=O)O)C1 (relative stereo) [PDC, L-trans-pyrrolidine-2,4-dicarboxylic acid]
Neuronal survival (PDC 30 μM, 75% N2, days 12-16): − | loss of cortical neuronal cells (PDC 30 μM, 75% nitrogen): about 85% | survival rate (PDC 30 μM, 75% nitrogen, % of cultures not treated with PDC under 75% nitrogen): 15.9%

CC12CC3CC(C)(C1)CC(N)(C3)C2 [memantine]
effect on neuronal survival (PDC 30 μM + memantine 0.1 μM alone, 75% nitrogen): no significant effect | Neuronal survival (PDC 30 μM + memantine 0.1 μM, 75% N2, days 12-16): − | survival rate (PDC 30 μM + memantine 1 μM by itself, 75% nitrogen): 54.6% | Neuronal survival (PDC 30 μM + memantine 1 μM, 75% N2, days 12-16): ++ | neuronal cells saved (PDC 30 μM + memantine 10 μM itself, 75% nitrogen): more than 90% | Neuronal survival (PDC 30 μM + memantine 10 μM, 75% N2, days 12-16): +++
